Measurements taken from ChEMBL document CHEMBL3885881, “DrugMatrix”.
Several values for one entry are separate records, joined by “and”; a condition that tells them apart may be missing. Identical values can stand only once.

Organism: Rattus norvegicus
Assay: DrugMatrix - Regimen: Daily Repeat
Type: toxicity, organism-based, Sprague-Dawley
Parameters: regimen Daily Repeat, gender Male, age 6-8 weeks
Conditions: in vivo, ip, route intraperitoneal, vehicle 100 % SALINE; for ABSOLUTE BASOPHIL / ABSOLUTE EOSINOPHIL / ABSOLUTE LYMPHOCYTE / ABSOLUTE MONOCYTE / ABSOLUTE SEGMENTED NEUTROPHIL / BASOPHIL / EOSINOPHIL / ERYTHROCYTE COUNT / HEMATOCRIT / HEMOGLOBIN / LEUKOCYTE COUNT / LYMPHOCYTE / MEAN CORPUSCULAR HEMOGLOBIN / MEAN CORPUSCULAR HEMOGLOBIN CONCENTRATION / MEAN CORPUSCULAR VOLUME / MONOCYTE / NEUTROPHIL / PLATELET COUNT: tissue Blood; for ALANINE AMINOTRANSFERASE / ALBUMIN / ALKALINE PHOSPHATASE / ASPARTATE AMINOTRANSFERASE / BLOOD UREA NITROGEN / CARBON DIOXIDE / CHOLESTEROL / CREATINE PHOSPHOKINASE / CREATININE / GLUCOSE / LACTATE DEHYDROGENASE / LIPASE / PHOSPHORUS / POTASSIUM / SODIUM / TOTAL BILIRUBIN / TOTAL PROTEIN / URIC ACID / CHLORIDE: tissue Plasma
[1] = 0 mg/kg, 120 h, dose level Control, time 5 day
[2] = 0 mg/kg, […], dose level Control, time 14 day
[3] = 0 mg/kg, […], dose level Control, time 28 day
[4] = 8 mg/kg, 120 h, dose level High, time 5 day
[5] = 8 mg/kg, […], dose level High, time 14 day
[6] = 8 mg/kg, […], dose level High, time 28 day

## GOLD SODIUM THIOMALATE
[1]
  ABSOLUTE BASOPHIL: 32 cells/µL
  ABSOLUTE EOSINOPHIL: 110 cells/µL
  ABSOLUTE LYMPHOCYTE: 6630 cells/µL
  ABSOLUTE MONOCYTE: 140 cells/µL
  ABSOLUTE SEGMENTED NEUTROPHIL: 1170 cells/µL
  BASOPHIL: 0.38% and 0.35%
  EOSINOPHIL: 1.28% and 0.62%
  ERYTHROCYTE COUNT: 7.45 x10E6/uL and 7.26 x10E6/uL
  HEMATOCRIT: 45.74% and 47.97%
  HEMOGLOBIN: 14.72 G/DL and 15.38 G/DL
  LEUKOCYTE COUNT: 8.11 x10E3/uL and 8.68 x10E3/uL
  LYMPHOCYTE: 81.3% and 86.77%
  MEAN CORPUSCULAR HEMOGLOBIN: 19.76 pg and 21.18 pg
  MEAN CORPUSCULAR HEMOGLOBIN CONCENTRATION: 32.16 G/DL and 32.05 G/DL
  MEAN CORPUSCULAR VOLUME: 61.38 fL and 66.15 fL
  MONOCYTE: 1.76% and 1.57%
  NEUTROPHIL: 14.9% and 9.53%
  PLATELET COUNT: 1322.4 x10E3/uL and 1786 x10E3/uL
  ALANINE AMINOTRANSFERASE: 25.8 u/L and 20.5 u/L
  ALBUMIN: 3.64 G/DL and 4.35 G/DL
  ALKALINE PHOSPHATASE: 300 u/L
  ASPARTATE AMINOTRANSFERASE: 81.4 u/L and 86.75 u/L
  BLOOD UREA NITROGEN: 14.4 mg/dL and 17 mg/dL
  CARBON DIOXIDE: 29 mmol/L
  CHOLESTEROL: 69.2 mg/dL and 51.25 mg/dL
  CREATINE PHOSPHOKINASE: 303.2 u/L and 384.75 u/L
  CREATININE: 0.56 mg/dL and 0.47 mg/dL
  GLUCOSE: 125.4 mg/dL and 128.75 mg/dL
  LACTATE DEHYDROGENASE: 105.4 u/L and 145 u/L
  LIPASE: 22.4 u/L and 13.25 u/L
  PHOSPHORUS: 11.8 mg/dL
  POTASSIUM: 5.52 MEQ/L and 6.58 MEQ/L
  SODIUM: 147 MEQ/L and 151 MEQ/L
  TOTAL BILIRUBIN: 0.2 mg/dL and 0.33 mg/dL
  TOTAL PROTEIN: 6.1 G/DL and 6.53 G/DL
  URIC ACID: 1.06 mg/dL and 1.95 mg/dL
[2]
  ABSOLUTE BASOPHIL: 130 cells/µL
  ABSOLUTE EOSINOPHIL: 140 cells/µL
  ABSOLUTE LYMPHOCYTE: 13500 cells/µL
  ABSOLUTE MONOCYTE: 400 cells/µL
  ABSOLUTE SEGMENTED NEUTROPHIL: 2330 cells/µL
  HEMATOCRIT: 45.98%
  HEMOGLOBIN: 15.17 G/DL
  MEAN CORPUSCULAR VOLUME: 59.4 fL
  NEUTROPHIL: 14.14%
  ALBUMIN: 3.66 G/DL
  CARBON DIOXIDE: 25 mmol/L
  CHLORIDE: 107 MEQ/L
  CREATINE PHOSPHOKINASE: 410.25 u/L
  SODIUM: 149.2 MEQ/L
  URIC ACID: 0.94 mg/dL
[3]
  ABSOLUTE BASOPHIL: 91 cells/µL
  ABSOLUTE EOSINOPHIL: 110 cells/µL
  ABSOLUTE LYMPHOCYTE: 9910 cells/µL
  ABSOLUTE MONOCYTE: 210 cells/µL
  ABSOLUTE SEGMENTED NEUTROPHIL: 1560 cells/µL
  BASOPHIL: 0.77%
  EOSINOPHIL: 0.92%
  ERYTHROCYTE COUNT: 8.21 x10E6/uL
  HEMATOCRIT: 47.53%
  HEMOGLOBIN: 15.65 G/DL
  LEUKOCYTE COUNT: 11.91 x10E3/uL
  LYMPHOCYTE: 83.34%
  MEAN CORPUSCULAR HEMOGLOBIN: 19.07 pg
  MEAN CORPUSCULAR HEMOGLOBIN CONCENTRATION: 32.93 G/DL
  MEAN CORPUSCULAR VOLUME: 57.9 fL
  MONOCYTE: 1.68%
  NEUTROPHIL: 12.97%
  PLATELET COUNT: 1323.8 x10E3/uL
  ALANINE AMINOTRANSFERASE: 30 u/L
  ALBUMIN: 3.71 G/DL
  ALKALINE PHOSPHATASE: 186.8 u/L
  ASPARTATE AMINOTRANSFERASE: 78.2 u/L
  BLOOD UREA NITROGEN: 14.2 mg/dL
  CHOLESTEROL: 44.9 mg/dL
  CREATINE PHOSPHOKINASE: 334.3 u/L
  CREATININE: 0.6 mg/dL
  GLUCOSE: 147.2 mg/dL
  LACTATE DEHYDROGENASE: 123.1 u/L
  LIPASE: 9.6 u/L
  PHOSPHORUS: 10.01 mg/dL
  POTASSIUM: 6.57 MEQ/L
  SODIUM: 149.5 MEQ/L
  TOTAL BILIRUBIN: 0.21 mg/dL
  TOTAL PROTEIN: 6.66 G/DL
  URIC ACID: 1.26 mg/dL
[4]
  ABSOLUTE BASOPHIL: 130 cells/µL
  ABSOLUTE EOSINOPHIL: 56 cells/µL
  ABSOLUTE LYMPHOCYTE: 9210 cells/µL
  ABSOLUTE MONOCYTE: 260 cells/µL
  ABSOLUTE SEGMENTED NEUTROPHIL: 1220 cells/µL
  BASOPHIL: 1.14% and 0.55%
  EOSINOPHIL: 0.52% and 0.85%
  ERYTHROCYTE COUNT: 7.23 x10E6/uL and 7.38 x10E6/uL
  HEMATOCRIT: 44.18% and 47.65%
  LEUKOCYTE COUNT: 10.96 x10E3/uL and 5.99 x10E3/uL
  LYMPHOCYTE: 83.86% and 79.83%
  MEAN CORPUSCULAR HEMOGLOBIN: 19.96 pg and 20.48 pg
  MEAN CORPUSCULAR HEMOGLOBIN CONCENTRATION: 32.6 G/DL and 31.73 G/DL
  MEAN CORPUSCULAR VOLUME: 64.58 fL
  MONOCYTE: 2.34% and 2.35%
  NEUTROPHIL: 11.32% and 14.95%
  PLATELET COUNT: 1423.2 x10E3/uL and 1443.75 x10E3/uL
  ALANINE AMINOTRANSFERASE: 32.8 u/L and 21 u/L
  ALBUMIN: 3.28 G/DL
  ALKALINE PHOSPHATASE: 176.2 u/L and 278.5 u/L
  ASPARTATE AMINOTRANSFERASE: 100.4 u/L and 71 u/L
  BLOOD UREA NITROGEN: 18.2 mg/dL and 15.25 mg/dL
  CARBON DIOXIDE: 27 mmol/L
  CHLORIDE: 106.6 MEQ/L and 106.75 MEQ/L
  CHOLESTEROL: 68.4 mg/dL and 52.25 mg/dL
  CREATINE PHOSPHOKINASE: 159.5 u/L and 253 u/L
  CREATININE: 0.52 mg/dL and 0.45 mg/dL
  GLUCOSE: 124.5 mg/dL
  LACTATE DEHYDROGENASE: 57.5 u/L and 107.5 u/L
  LIPASE: 28.8 u/L and 9.75 u/L
  PHOSPHORUS: 9.6 mg/dL and 11.85 mg/dL
  POTASSIUM: 5.78 MEQ/L and 5.65 MEQ/L
  SODIUM: 150.8 MEQ/L and 151.5 MEQ/L
  TOTAL BILIRUBIN: 0.18 mg/dL and 0.32 mg/dL
  TOTAL PROTEIN: 5.68 G/DL and 6.25 G/DL
  URIC ACID: 1.38 mg/dL and 2.12 mg/dL
[5]
  ABSOLUTE BASOPHIL: 34 cells/µL
  ABSOLUTE EOSINOPHIL: 82 cells/µL
  ABSOLUTE LYMPHOCYTE: 8830 cells/µL
  ABSOLUTE MONOCYTE: 250 cells/µL
  ABSOLUTE SEGMENTED NEUTROPHIL: 1460 cells/µL
  MEAN CORPUSCULAR HEMOGLOBIN: 20.12 pg
  CARBON DIOXIDE: 25 mmol/L
  CHLORIDE: 108.6 MEQ/L
[6]
  ABSOLUTE BASOPHIL: 110 cells/µL
  ABSOLUTE EOSINOPHIL: 71 cells/µL
  ABSOLUTE LYMPHOCYTE: 9610 cells/µL
  ABSOLUTE MONOCYTE: 180 cells/µL
  ABSOLUTE SEGMENTED NEUTROPHIL: 1180 cells/µL
  BASOPHIL: 0.95%
  EOSINOPHIL: 0.64%
  ERYTHROCYTE COUNT: 7.92 x10E6/uL
  HEMATOCRIT: 45.49%
  LEUKOCYTE COUNT: 11.2 x10E3/uL
  LYMPHOCYTE: 85.54%
  MEAN CORPUSCULAR HEMOGLOBIN: 18.71 pg
  MEAN CORPUSCULAR HEMOGLOBIN CONCENTRATION: 32.56 G/DL
  MEAN CORPUSCULAR VOLUME: 57.51 fL
  MONOCYTE: 1.65%
  NEUTROPHIL: 10.78%
  PLATELET COUNT: 1410.8 x10E3/uL
  ALANINE AMINOTRANSFERASE: 33.3 u/L
  ALBUMIN: 3.51 G/DL
  ALKALINE PHOSPHATASE: 144.9 u/L
  ASPARTATE AMINOTRANSFERASE: 73.8 u/L
  BLOOD UREA NITROGEN: 12.7 mg/dL
  CHLORIDE: 107.3 MEQ/L
  CHOLESTEROL: 48.9 mg/dL
  CREATINE PHOSPHOKINASE: 237.4 u/L
  CREATININE: 0.61 mg/dL
  GLUCOSE: 141.1 mg/dL
  LACTATE DEHYDROGENASE: 100.8 u/L
  LIPASE: 13.2 u/L
  PHOSPHORUS: 9.57 mg/dL
  POTASSIUM: 6.28 MEQ/L
  SODIUM: 150 MEQ/L
  TOTAL BILIRUBIN: 0.2 mg/dL
  TOTAL PROTEIN: 6.4 G/DL
  URIC ACID: 1.22 mg/dL
